Laboratory results taken from ChEMBL document CHEMBL1140490, “Design and synthesis via click chemistry of 8,9-anhydroerythromycin A 6,9-hemiketal analogues with anti-MRSA and -VRE activity” (2007).
≈ marks a conversion by molar mass, not a printed value.

How the values were obtained:
[1] = test system: Staphylococcus aureus; assay: Antimicrobial activity against methicillin-resistant Staphylococcus aureus N315 IR94-HR-1 by serial dilution method; type: functional
[2] = test system: Enterococcus faecalis; assay: Antimicrobial activity against vancomycin-resistant Enterococcus faecalis NCTC-12201 by serial dilution method; type: functional
[3] = test system: Staphylococcus aureus; assay: Antimicrobial activity against methicillin-resistant Staphylococcus aureus 92-1191 by serial dilution method; type: functional
[4] = test system: Staphylococcus aureus; assay: Antimicrobial activity against Staphylococcus aureus Smith by serial dilution method; type: functional
[5] = test system: Escherichia coli; assay: Antimicrobial activity against Escherichia coli NIHJ JC-2 by serial dilution method; type: functional
[6] = test system: Staphylococcus aureus; assay: (§1) Antimicrobial activity against Staphylococcus aureus 8325 by serial dilution method; type: functional
[7] = test system: Staphylococcus aureus; assay: Antimicrobial activity against Staphylococcus aureus ISP217 by serial dilution method; type: functional
[8] = test system: Staphylococcus aureus; assay: Antimicrobial activity against methicillin-resistant Staphylococcus aureus 70 by serial dilution method; type: functional
[9] = test system: Staphylococcus aureus; assay: Antimicrobial activity against Staphylococcus aureus ISP447 by serial dilution method; type: functional
[10] = test system: Staphylococcus aureus; assay: as §1; type: functional; remark: listed apart in the source
[11] = test system: Staphylococcus aureus; assay: Antimicrobial activity against Staphylococcus aureus FDA209P by serial dilution method; type: functional
[12] = test system: Staphylococcus aureus; assay: Antimicrobial activity against methicillin-resistant Staphylococcus aureus N315 IR94 by serial dilution method; type: functional
[13] = test system: Enterococcus faecium; assay: Antimicrobial activity against vancomycin-resistant Enterococcus faecium NCTC-12203 by serial dilution method

SMILES | MIC [1] [µg/mL] | MIC [2] [µg/mL] | MIC [3] [µg/mL] | MIC [4] [µg/mL] | MIC [5] [µg/mL] | MIC [6] [µg/mL] | MIC [7] [µg/mL] | MIC [8] [µg/mL] | MIC [9] [µg/mL] | MIC [10] [µg/mL] | MIC [11] [µg/mL] | MIC [12] [µg/mL] | MIC [13] [µg/mL]
CC[C@H]1OC(=O)[C@H](C)[C@@H](OCc2cn(Cc3ccccc3)nn2)[C@H](C)[C@@H](O[C@@H]2O[C@H](C)C[C@H](N(C)C)[C@H]2O)[C@@]2(C)CC(C)=C(O2)[C@H](C)[C@@H](OC(=O)C(C)C)[C@]1(C)OC(=O)C(C)C | 8 (≈ 9.2 µM) | 16 (≈ 18.4 µM) | 16 (≈ 18.4 µM) | 32 (≈ 36.8 µM) | > 128 | 16 (≈ 18.4 µM) | 16 (≈ 18.4 µM) | 16 (≈ 18.4 µM) | 16 (≈ 18.4 µM) | 8 (≈ 9.2 µM) | 16 (≈ 18.4 µM) | 8 (≈ 9.2 µM) | 16 (≈ 18.4 µM)
CC[C@H]1OC(=O)[C@H](C)[C@@H](OCc2cn(CC(=O)O)nn2)[C@H](C)[C@@H](O[C@@H]2O[C@H](C)C[C@H](N(C)C)[C@H]2O)[C@@]2(C)CC(C)=C(O2)[C@H](C)[C@@H](OC(=O)C(C)C)[C@]1(C)OC(=O)C(C)C |  | > 128 |  | > 128 | > 128 | > 128 | > 128 |  | > 128 | > 128 | > 128 |  | > 128
CC[C@H]1OC(=O)[C@H](C)[C@@H](OCc2cn(CC(=O)Nc3ccccn3)nn2)[C@H](C)[C@@H](O[C@@H]2O[C@H](C)C[C@H](N(C)C)[C@H]2O)[C@@]2(C)CC(C)=C(O2)[C@H](C)[C@@H](OC(=O)C(C)C)[C@]1(C)OC(=O)C(C)C | 16 (≈ 17.5 µM) | > 128 | 32 (≈ 35 µM) | 32 (≈ 35 µM) | > 128 | 32 (≈ 35 µM) | 16 (≈ 17.5 µM) | 32 (≈ 35 µM) | 32 (≈ 35 µM) | 16 (≈ 17.5 µM) | 32 (≈ 35 µM) | 16 (≈ 17.5 µM) | 32 (≈ 35 µM)
CC[C@H]1OC(=O)[C@H](C)[C@@H](O[C@H]2C[C@@](C)(OC)[C@@H](OC=O)[C@H](C)O2)[C@H](C)[C@@H](O[C@@H]2O[C@H](C)C[C@H](N(C)C)[C@H]2OC(C)=O)[C@@]2(C)CC(C)=C(O2)[C@H](C)[C@@H](OC(=O)C(C)C)[C@]1(C)OC(=O)C(C)C | 16 (≈ 17.3 µM) | 32 (≈ 34.6 µM) |  | 16 (≈ 17.3 µM) | > 128 | 32 (≈ 34.6 µM) | 16 (≈ 17.3 µM) | 16 (≈ 17.3 µM) | 16 (≈ 17.3 µM) | 16 (≈ 17.3 µM) | 16 (≈ 17.3 µM) | 16 (≈ 17.3 µM) | 32 (≈ 34.6 µM)
CC[C@H]1OC(=O)[C@H](C)[C@@H](OCc2cn(-c3cnc4ccccc4c3)nn2)[C@H](C)[C@@H](O[C@@H]2O[C@H](C)C[C@H](N(C)C)[C@H]2O)[C@@]2(C)CC(C)=C(O2)[C@H](C)[C@@H](OC(=O)C(C)C)[C@]1(C)OC(=O)C(C)C | 16 (≈ 17.7 µM) | 32 (≈ 35.3 µM) | 16 (≈ 17.7 µM) | 32 (≈ 35.3 µM) | > 128 | 32 (≈ 35.3 µM) | 16 (≈ 17.7 µM) | 16 (≈ 17.7 µM) | 32 (≈ 35.3 µM) | 8 (≈ 8.83 µM) | 16 (≈ 17.7 µM) | 8 (≈ 8.83 µM) | 16 (≈ 17.7 µM)
CC[C@H]1OC(=O)[C@H](C)[C@@H](OCc2cn(C34CC5CC(CC(C5)C3)C4)nn2)[C@H](C)[C@@H](O[C@@H]2O[C@H](C)C[C@H](N(C)C)[C@H]2O)[C@@]2(C)CC(C)=C(O2)[C@H](C)[C@@H](OC(=O)C(C)C)[C@]1(C)OC(=O)C(C)C | 8 (≈ 8.76 µM) | 8 (≈ 8.76 µM) | 8 (≈ 8.76 µM) | 16 (≈ 17.5 µM) | > 128 | 16 (≈ 17.5 µM) | 8 (≈ 8.76 µM) | 8 (≈ 8.76 µM) | 16 (≈ 17.5 µM) | 8 (≈ 8.76 µM) | 8 (≈ 8.76 µM) | 8 (≈ 8.76 µM) | 8 (≈ 8.76 µM)
CC[C@H]1OC(=O)[C@H](C)[C@@H](OCc2cn(CC(=O)OCc3ccccc3)nn2)[C@H](C)[C@@H](O[C@@H]2O[C@H](C)C[C@H](N(C)C)[C@H]2O)[C@@]2(C)CC(C)=C(O2)[C@H](C)[C@@H](OC(=O)C(C)C)[C@]1(C)OC(=O)C(C)C | 16 (≈ 17.3 µM) | 32 (≈ 34.5 µM) | 32 (≈ 34.5 µM) | 128 (≈ 138 µM) | > 128 | 64 (≈ 69 µM) | 16 (≈ 17.3 µM) | 16 (≈ 17.3 µM) | 64 (≈ 69 µM) | 16 (≈ 17.3 µM) | 32 (≈ 34.5 µM) | 16 (≈ 17.3 µM) | 32 (≈ 34.5 µM)
CC[C@H]1OC(=O)[C@H](C)[C@@H](O[C@H]2C[C@@](C)(OC)[C@@H](O)[C@H](C)O2)[C@H](C)[C@@H](O[C@@H]2O[C@H](C)C[C@H](N(C)C)[C@H]2O)[C@](C)(O)C[C@@H](C)C(=O)[C@H](C)[C@@H](O)[C@]1(C)O [ERYTHROMYCIN] |  | > 256 | > 128 | ≤ 0.5 | > 256 | 64 (≈ 87.2 µM) | > 256 |  | > 256 | > 256 | ≤ 0.5 |  | > 256
